Laboratory results from ChEMBL document CHEMBL3259797, “Radiosyntheses and in vivo evaluation of carbon-11 PET tracers for PDE10A in the brain of rodent and nonhuman primate” (Bioorg Med Chem, 2014).

Columns and labels:
Blood [1] = assay: Biodistribution in Sprague-Dawley rat blood at 14.8 to 18.5 MBq, iv measured at 60 mins post-injection by gamma counting analysis; type: ADME, organism-based; conditions: in vivo, 1 h
Brain [2] = assay: Biodistribution in Sprague-Dawley rat brain at 14.8 to 18.5 MBq, iv measured at 60 mins post-injection by gamma counting analysis; type: ADME, organism-based; conditions: in vivo, 1 h
Muscle tissue [3] = assay: Biodistribution in Sprague-Dawley rat muscle at 14.8 to 18.5 MBq, iv measured at 30 mins post-injection by gamma counting analysis; type: ADME, organism-based; conditions: in vivo, 0.5 h
Striatum [4] = assay: Biodistribution in Sprague-Dawley rat striatum at 14.8 to 18.5 MBq, iv measured at 30 mins post-injection by gamma counting analysis; type: ADME, organism-based; conditions: in vivo, 0.5 h
Rattus norvegicus [5] = assay: Biodistribution in Sprague-Dawley rat fat at 14.8 to 18.5 MBq, iv measured at 5 mins post-injection by gamma counting analysis; type: ADME, organism-based, Adipose tissue; conditions: in vivo
Muscle tissue [6] = assay: Biodistribution in Sprague-Dawley rat muscle at 14.8 to 18.5 MBq, iv measured at 60 mins post-injection by gamma counting analysis; type: ADME, organism-based; conditions: in vivo, 1 h
Heart [7] = assay: Biodistribution in Sprague-Dawley rat heart at 14.8 to 18.5 MBq, iv measured at 30 mins post-injection by gamma counting analysis; type: ADME, organism-based; conditions: in vivo, 0.5 h
Rattus norvegicus [8] = assay: Biodistribution in Sprague-Dawley rat fat at 14.8 to 18.5 MBq, iv measured at 60 mins post-injection by gamma counting analysis; type: ADME, organism-based, Adipose tissue; conditions: in vivo, 1 h
Striatum [9] = assay: Biodistribution in Sprague-Dawley rat striatum at 14.8 to 18.5 MBq, iv measured at 5 mins post-injection by gamma counting analysis; type: ADME, organism-based; conditions: in vivo
Heart [10] = assay: Biodistribution in Sprague-Dawley rat heart at 14.8 to 18.5 MBq, iv measured at 60 mins post-injection by gamma counting analysis; type: ADME, organism-based; conditions: in vivo, 1 h
Blood [11] = assay: Biodistribution in Sprague-Dawley rat blood at 14.8 to 18.5 MBq, iv measured at 5 mins post-injection by gamma counting analysis; type: ADME, organism-based; conditions: in vivo
Cerebellum [12] = assay: Biodistribution in Sprague-Dawley rat cerebellum at 14.8 to 18.5 MBq, iv measured at 60 mins post-injection by gamma counting analysis; type: ADME, organism-based; conditions: in vivo, 1 h
Liver [13] = assay: Biodistribution in Sprague-Dawley rat liver at 14.8 to 18.5 MBq, iv measured at 5 mins post-injection by gamma counting analysis; type: ADME, organism-based; conditions: in vivo
Rattus norvegicus [14] = assay: Biodistribution in Sprague-Dawley rat fat at 14.8 to 18.5 MBq, iv measured at 30 mins post-injection by gamma counting analysis; type: ADME, organism-based, Adipose tissue; conditions: in vivo, 0.5 h
Kidney [15] = assay: Biodistribution in Sprague-Dawley rat kidney at 14.8 to 18.5 MBq, iv measured at 60 mins post-injection by gamma counting analysis; type: ADME, organism-based; conditions: in vivo, 1 h
Liver [16] = assay: Biodistribution in Sprague-Dawley rat liver at 14.8 to 18.5 MBq, iv measured at 30 mins post-injection by gamma counting analysis; type: ADME, organism-based; conditions: in vivo, 0.5 h
Heart [17] = assay: Biodistribution in Sprague-Dawley rat heart at 14.8 to 18.5 MBq, iv measured at 5 mins post-injection by gamma counting analysis; type: ADME, organism-based; conditions: in vivo
Muscle tissue [18] = assay: Biodistribution in Sprague-Dawley rat muscle at 14.8 to 18.5 MBq, iv measured at 5 mins post-injection by gamma counting analysis; type: ADME, organism-based; conditions: in vivo
Lung [19] = assay: Biodistribution in Sprague-Dawley rat lung at 14.8 to 18.5 MBq, iv measured at 5 mins post-injection by gamma counting analysis; type: ADME, organism-based; conditions: in vivo
Nucleic Acid = assay: Ratio of drug level in striatum to cerebellum in Sprague-Dawley rat at 14.8 to 18.5 MBq, iv measured at 30 mins post-injection by gamma counting analysis; type: ADME, organism-based; conditions: in vivo, 0.5 h
Liver [20] = assay: Biodistribution in Sprague-Dawley rat liver at 14.8 to 18.5 MBq, iv measured at 60 mins post-injection by gamma counting analysis; type: ADME, organism-based; conditions: in vivo, 1 h
Kidney [21] = assay: Biodistribution in Sprague-Dawley rat kidney at 14.8 to 18.5 MBq, iv measured at 30 mins post-injection by gamma counting analysis; type: ADME, organism-based; conditions: in vivo, 0.5 h
Brain [22] = assay: Biodistribution in Sprague-Dawley rat brain at 14.8 to 18.5 MBq, iv measured at 30 mins post-injection by gamma counting analysis; type: ADME, organism-based; conditions: in vivo, 0.5 h
Brain [23] = assay: Biodistribution in Sprague-Dawley rat brain at 14.8 to 18.5 MBq, iv measured at 5 mins post-injection by gamma counting analysis; type: ADME, organism-based; conditions: in vivo
Blood [24] = assay: Biodistribution in Sprague-Dawley rat blood at 14.8 to 18.5 MBq, iv measured at 30 mins post-injection by gamma counting analysis; type: ADME, organism-based; conditions: in vivo, 0.5 h
Lung [25] = assay: Biodistribution in Sprague-Dawley rat lung at 14.8 to 18.5 MBq, iv measured at 60 mins post-injection by gamma counting analysis; type: ADME, organism-based; conditions: in vivo, 1 h
Lung [26] = assay: Biodistribution in Sprague-Dawley rat lung at 14.8 to 18.5 MBq, iv measured at 30 mins post-injection by gamma counting analysis; type: ADME, organism-based; conditions: in vivo, 0.5 h
Kidney [27] = assay: Biodistribution in Sprague-Dawley rat kidney at 14.8 to 18.5 MBq, iv measured at 5 mins post-injection by gamma counting analysis; type: ADME, organism-based; conditions: in vivo
Cerebellum [28] = assay: Biodistribution in Sprague-Dawley rat cerebellum at 14.8 to 18.5 MBq, iv measured at 30 mins post-injection by gamma counting analysis; type: ADME, organism-based; conditions: in vivo, 0.5 h
Cerebellum [29] = assay: Biodistribution in Sprague-Dawley rat cerebellum at 14.8 to 18.5 MBq, iv measured at 5 mins post-injection by gamma counting analysis; type: ADME, organism-based; conditions: in vivo
Striatum [30] = assay: Biodistribution in Sprague-Dawley rat striatum at 14.8 to 18.5 MBq, iv measured at 60 mins post-injection by gamma counting analysis; type: ADME, organism-based; conditions: in vivo, 1 h

| Drug uptake (Blood [1]) | Drug uptake (Brain [2]) | Drug uptake (Muscle tissue [3]) | Drug uptake (Striatum [4]) | Drug uptake (Rattus norvegicus [5]) | Drug uptake (Muscle tissue [6]) | Drug uptake (Heart [7]) | Drug uptake (Rattus norvegicus [8]) | Drug uptake (Striatum [9]) | Drug uptake (Heart [10]) | Drug uptake (Blood [11]) | Drug uptake (Cerebellum [12]) | Drug uptake (Liver [13]) | Drug uptake (Rattus norvegicus [14]) | Drug uptake (Kidney [15]) | Drug uptake (Liver [16]) | Drug uptake (Heart [17]) | Drug uptake (Muscle tissue [18]) | Drug uptake (Lung [19]) | Drug uptake (Liver [20]) | Compound | further results |
| --- | --- | --- | --- | --- | --- | --- | --- | --- | --- | --- | --- | --- | --- | --- | --- | --- | --- | --- | --- | --- | --- |
| 0.067 % ID/g | 0.015 % ID/g | 0.093 % ID/g | 0.083 % ID/g | 0.066 % ID/g | 0.052 % ID/g | 0.132 % ID/g | 0.139 % ID/g | 0.151 % ID/g | 0.103 % ID/g | 0.099 % ID/g | 0.015 % ID/g | 3.312 % ID/g | 0.139 % ID/g | 0.575 % ID/g | 4.43 % ID/g | 0.335 % ID/g | 0.146 % ID/g | 0.643 % ID/g | 4.588 % ID/g | Cn1ncc(-c2ccncc2)c1-c1ccc(OCc2cc(O[11CH3])c3ccccc3n2)cc1 | Ratio (Nucleic Acid): 3.6; Drug uptake (Kidney [21]): 0.645 % ID/g; Drug uptake (Brain [22]): 0.025 % ID/g; Drug uptake (Brain [23]): 0.091 % ID/g; Drug uptake (Blood [24]): 0.067 % ID/g; Drug uptake (Lung [25]): 0.107 % ID/g; Drug uptake (Lung [26]): 0.156 % ID/g; Drug uptake (Kidney [27]): 1.744 % ID/g; Drug uptake (Cerebellum [28]): 0.024 % ID/g; Drug uptake (Cerebellum [29]): 0.094 % ID/g; Drug uptake (Striatum [30]): 0.037 % ID/g |
| 0.21 % ID/g | 0.074 % ID/g | 0.175 % ID/g | 0.16 % ID/g | 0.139 % ID/g | 0.129 % ID/g | 0.264 % ID/g | 0.135 % ID/g | 0.293 % ID/g | 0.182 % ID/g | 0.282 % ID/g | 0.066 % ID/g | 5.357 % ID/g | 0.221 % ID/g | 0.637 % ID/g | 3.172 % ID/g | 0.416 % ID/g | 0.151 % ID/g | 0.744 % ID/g | 1.724 % ID/g | Cn1cc(-c2ccncc2)c(-c2ccc(OCc3ccc4cc(O[11CH3])ccc4n3)cc2)n1 | Drug uptake (Kidney [21]): 0.883 % ID/g; Drug uptake (Brain [22]): 0.105 % ID/g; Drug uptake (Brain [23]): 0.249 % ID/g; Drug uptake (Blood [24]): 0.275 % ID/g; Drug uptake (Lung [25]): 0.249 % ID/g; Drug uptake (Lung [26]): 0.389 % ID/g; Drug uptake (Kidney [27]): 1.333 % ID/g; Drug uptake (Cerebellum [28]): 0.09 % ID/g; Drug uptake (Cerebellum [29]): 0.251 % ID/g; Drug uptake (Striatum [30]): 0.089 % ID/g |
